Reference: publication PMC5108032, “Discovery of a Quinoline-4-carboxamide Derivative with a Novel Mechanism of Action, Multistage Antimalarial Activity, and Potent in Vivo Efficacy” (Journal of Medicinal Chemistry, 2016)
Where “and” joins values, the source holds several entries; their conditions need not be identical. Identical values can stand only once. Like-named read-outs stand apart in the source and are kept apart here. Marks after values point to notes of the source that are not given here.

Key:
[1] = Mammalian cell growth inhibition counter-screen (resazurin); assay type: cell-based, human; conditions: human, MRC-5 cells (normal diploid human fibroblasts)
Method: (§1) Plasmodium falciparum screening
(§2) Assays against P. falciparum were conducted as previously described.1 Cultures of the widely-used malaria reference strain of chloroquine-sensitive Plasmodium falciparum strain 3D7 were maintained in a 5% suspension of human red blood cells (obtained from East of Scotland Blood Transfusion Service, Ninewells Hospital, Dundee) cultured in RPMI 1640 medium (pH 7.3) supplemented with 0.5% Albumax II (Gibco Life Technologies, San Diego, CA), 12 mM sodium bicarbonate, 0.2 mM hypoxanthine and 20 mg/L gentamicin at 37°C, in a humidified atmosphere of 1% O 2, 3% CO2 with a balance of nitrogen. Growth inhibition was quantified using a fluorescence assay utilising the binding of SYBR green to double stranded DNA, which emits a fluorescent signal at 528 nm after excitation at 485nm.2 Mefloquine (potency range 30-60 nM) was used as a drug control to monitor the quality of the assay (Z’ = 0.6 to 0.8, Signal to background >3, where Z’ is a measure of the discrimination between the positive and negative controls on a screen plate). A 96-well [3H]-Hypoxanthine incorporation assay was also developed as a secondary assay in order to validate compounds from the initial screen in an orthogonal platform.3 Compound bioactivity from both assays was expressed as […]
(§3) P. falciparum (panel of resistant strains) in vitro assay. (Swiss TPH)
(§4) All Plasmodium strains were cultured according to Trager and Jensen and are described at www.beiresources.org (resistant strains: K1, W2, 7G8, TM90C2A, D6 and V1/S, sensitive strain:
(§5) NF54). EC50 values were determined in vitro by measuring incorporation of the nucleic acid precursor […]
(§6) Mammalian Cell Growth Inhibition assay
(§7) A counter-screen against normal diploid human fibroblasts (MRC-5 cell line) was carried out to exclude non-selective, and toxic compounds. The assay was essentially carried out as described previously.4 Cells were plated and incubated overnight to allow them to adhere as monolayers. A working stock of each test compound was transferred to an intermediate 384-well plate and pre-diluted with minimum essential media (MEM). The pre-diluted stocks were then transferred onto the cell monolayers, and the plates were incubated for 68 h. Resazurin, to a final concentration of 50 μM, was added to each well, after which plates were incubated for a further 3 h and measured for fluorescence (λex=528 nm, λem=590 nm)
(§8) In vitro Cell Assay Data Analysis.
(§9) All data was processed using IDBS ActivityBase® raw data was converted into per cent inhibition through linear regression by setting the high inhibition control as 100% and the no inhibition control as 0%. Quality control criteria for passing plates were as follows: Z’> 0.5, S:B> 3, %CV(no inhibition < 15 . The formula used to calculate Z’ is 1 3× (St D e v _ hi gh + St D e v _ low) . […]
(§10) All EC50 Curve fitting was undertaken using XLFit version 4.2 using Model 205 with the following 4 parametric equation: y = A + B A A + ($-&) ,where A=% inhibition at bottom, B=% […]
(§11) inhibition at top, C= EC50, D= slope, x= inhibitor concentration and y= % inhibition. […]
(§12) reach 100% of inhibition, B was fixed to 100 only when at least 50% of inhibition was reached.
(§13) Plasmodium falciparum late stage (IV-V) gametocyte high content imaging assay Plasmodium falciparum NF54-pfs16-LUC-GFP stage IV-V Gametocytes were produced as described previously.5 Compounds were solubilized in DMSO and serially diluted in three concentrations per log standard curves in DM SO. One µl of compound was subsequently diluted in 25µl of water (4% DMSO) and 5µl transferred into the base of 384 well PerkinElmer CellCarrier plates. Forty-five µl of stage IV-V gametocytes (10%P in 0.1%H) were added to the imaging plates which were in turn sealed with a gas permeable membrane and incubated at 37°C, 5% CO 2, 5% O2, 90% N2 and 60% humidity […]
(§14) Post incubation, 5µl of MitoTracker® Red CM -H2Xros (MTR) solution (0.66ug/ml) was added to all wells and the plates incubated for a further 16hours. […]

[2] = test system: Plasmodium falciparum strain 3D7; experiment: Plasmodium falciparum screening, SYBR green growth inhibition; assay type: cell-based; conditions: 3D7, supplementary csv, read-out: Pf (3D7) EC50
Method: as §1, §2, §3, §4, §5, §6, §7, §8, §9, §10, §11, §12, §13, §14

[3] = Parallel artificial membrane permeability assay (PAMPA); assay type: in vitro ADME
[4] = Experimental pKa by potentiometric titration; assay type: physicochemical; conditions: value in parentheses, read-out: R^3 group pKa, experimental
Excerpt: Table 4 SAR Study of the R^3 Substituent: Aromatic Groups | column: R^3 group pKa^a

P. berghei ANKA strain = experiment: In vivo antimalarial efficacy in the P. berghei mouse model (Peter's test); set-up: species or system Plasmodium berghei in female NMRI mice; conditions: for inhibition in vivo at 1 mg/kg: Plasmodium berghei, po, 96 h, 4 × 1 mg/kg oral, read-out: activity (reduction of parasitemia); for inhibition in vivo at 1 mg/kg / cure: once daily; for cure: mice cured / mice in group
Method: Compound 41 was dosed as a bolus solution intravenously at 1 mg free base/kg (dose volume: 5 mL/kg; dose vehicle: 5% DMSO;saline) or by gavage orally as solution at 3 mg free base/kg (dose volume: 10 mL/kg; Dose vehicle: 0.5% w/v hydroxypropylmethylcellulose with 0.4% v/v Tween 80 and 0.5% v/v benzyl alcohol) to male Sprague Dawley rats (n=3/dose route). Blood samples were taken from each rat at 5, 15, 30 min, 1, 2, 4, 6, 8, 24 and 30 h post-dose, mixed with two volumes of distilled water and stored frozen until UPLC/MS/MS analysis.
Pharmacokinetic parameters were derived from the blood concentration time curve for each compound using PKsolutions software v 2.0 (Summit Research Services, USA).
In vivo antimalarial efficacy studies in P. berghei. (Swiss TPH)
In vivo efficacy was conducted as previously described10 with the modification that female NMRI mice (n = 3) were infected with a GFP-transfected P. berghei ANKA strain (donated by A. P. Waters and C. J. Janse, Leiden University, The Netherlands), and parasitaemia determined (96 h after infection) using standard flow cytometry techniques. Compounds 1, 25, 27, 30 and 49 were prepared in 10% DM SO, 40% PEG 400 and 50% water prior to administration orally, once daily for 4 days.
Compounds 40, 41, 43 and 44 were prepared in a non-solubilizing, standard suspension vehicle called HPMC (0.5% [wt/vol] hydroxypropylmethylcellulose, 0.5% [vol/vol] benzyl alcohol, 0.4% [vol/vol] Tween 80, and 0.9% [wt/vol] sodium chloride in water) prior to administration orally, once daily for 4 days. Blood samples were collected on day 4 (96 h after infection) in two volumes water. Animals […]
and then hourly up to 4 h after dosing each day. The animals were selected randomly for each group

[5] = Intrinsic clearance (Cli) in mouse liver microsomes; assay type: in vitro ADME; conditions: mouse liver microsome
Excerpt: as §11, §12, §13
(§15) Post incubation, 5µl of MitoTracker® Red CM -H2Xros (MTR) solution (0.66ug/ml) was added to all wells and the plates incubated for a further 16hours. The assay plates were then imaged and the number of viable gametocytes determined for test compounds plus 0.4%DMSO and 5µM Puromycin.
(§16) (0.4%DMSO) control values. Percent inhibition was plotted against log compound concentration using a 4 parameter log dose, non-linear regression analysis, with sigmoidal dose response (variable slope) curve fit using Prizm 4.0. IC50 values were obtained from this curve fit. The compound testing was performed in duplicate point within two separate experiments.
(§17) Plasmodium berghei ookinete development assay
(§18) Assay was performed as previously reported.6 Briefly blood containing P. berghei CTRPp-GFP gametocytes was rapidly harvested from infected mice and introduced to test compounds pre-diluted in ookinete medium (to induce gamete formation and support ookinete development) in 96-well plates. Plates were incubated in the dark at 21°C for 22 hr before GFP fluorescence intensity measured in a plate reader. % inhibition of ookinete formation was calculated with reference to the fluorescence intensity values of a positive control (20 µM cycloheximide) and a solvent-only negative control (DMSO). All assays were performed in triplicate independent experiments and EC50 values calculated in Graphpad Prism.
(§19) The aqueous solubility of the test compounds was measured using laser nephelometry, as described previously.7 Compounds were subject to serial dilution from 10 mg/mL to 0.5 mg/mL in DMSO. An aliquot was then mixed with MilliQ water to obtain an aqueous dilution plate with a final concentration range of 100 – 5 μg/mL, with a final DMSO concentration of 1.0%. Triplicate aliquots were transferred to a flat bottomed polystyrene plate which was immediately read on the NEPHELOstar (BMG Lab Technologies). The amount of laser scatter caused by insoluble particulates (relative nephelometry units, RNU) was plotted against compound concentration using a segmental regression fit, with the point of inflection being quoted as the compounds aqueous solubility (μg/mL; […]
(§20) Intrinsic Clearance (Cli) experiments
(§21) The procedure was carried out as reported previously.7 Test compound (0.5 µM) was incubated with female CD1 mouse, male sprague-dawley rat or pooled human mixed gender liver microsomes (Xenotech LLC TM; 0.5 mg/mL 50 mM potassium phosphate buffer, pH 7.4) and the reaction initiated […]
by the addition of excess NADPH (8 mg/mL 50 mM potassium phosphate buffer, pH 7.4).
Immediately, at time zero, then at 3, 6, 9, 15 and 30 min an aliquot (50 μL) of the incubation mixture was removed and mixed with acetonitrile (100 μL) to stop the reaction. Internal standard was added to all samples, the samples centrifuged to sediment precipitated protein and the plates then sealed prior to UPLC-MS/MS analysis using a Quattro Premier XE (Waters Corporation, USA).
XLfit (IDBS, UK) was used to calculate the exponential decay and consequently the rate constant (k) from the ratio of peak area of test compound to internal standard at each timepoint. The rate of […]

[6] = Intrinsic clearance (Cli) in rat liver microsomes; assay type: in vitro ADME; conditions: rat liver microsome
Excerpt: as §11, §12, §13, §15, §16, §17, §18, §19, §20, §21
(§22) by the addition of excess NADPH (8 mg/mL 50 mM potassium phosphate buffer, pH 7.4). […]

[7] = Intrinsic clearance (Cli) in human liver microsomes; assay type: in vitro ADME; conditions: human liver microsome
Excerpt: as §11, §12, §13, §15, §16, §17, §18, §19, §20, §21, §22

[8] = set-up: method as in PMID 26085270; conditions: male Sprague Dawley rat, intravenous at 1 mg/kg; cited from earlier work
[9] = set-up: method as in PMID 26085270; conditions: potentiometric titration, value in parentheses; cited from earlier work
[10] = set-up: method as in PMID 26085270; conditions: pH 7.4; cited from earlier work
[11] = set-up: method as in PMID 26085270; conditions: mouse plasma protein binding; cited from earlier work
[12] = set-up: method as in PMID 26085270; conditions: human liver microsome; cited from earlier work
[13] = set-up: method as in PMID 26085270; conditions: rat liver microsome; cited from earlier work
[14] = set-up: method as in PMID 26085270; conditions: mouse liver microsome; cited from earlier work
[15] = set-up: method as in PMID 26085270; conditions: mouse, iv dose 1 mg/kg; cited from earlier work
Pf (3D7) = experiment: Ligand efficiency metrics (LE, LLE, LELP), selectivity and fold changes; set-up: species or system Plasmodium falciparum
[16] = Pf (3D7), relative to the comparator compound of the sentence

SMILES: O=C(NCCN1CCCC1)c1cc(NCCC2CCOCC2)nc2ccc(F)cc12 [Compound 29, 6-Fluoro-N-(2-(pyrrolidin-1-yl)ethyl)-2-((2-(tetrahydro-2H-pyran-4-yl)ethyl)amino)quinoline-4-carboxamide]
- EC50 at 68 h [1]: > 50 µM
- EC50 [2]: 0.0017 µM

SMILES: CC(C)NCC(O)COc1cccc2ccccc12 (centres unmarked) [propanolol, reference compound]
- Papp at 5 h, 10 µM ([3]; pH 7.4, read-out: PAMPA Pe): 15.9 ×10⁻⁶ cm/s

SMILES: O=C(NCCN1CCCC1)c1cc(-c2ccc(CN3CCOCC3)c(F)c2)nc2ccc(F)cc12 [Compound 40]
- pKa [4]: 6.1
- inhibition in vivo at 1 mg/kg (P. berghei ANKA strain): > 99%
- MLM Cli [5]: 1.0 mL min^–1 g^–1

SMILES: O=C(NCCN1CCCC1)c1cc(-c2ccc(CN3CCCC3=O)cc2)nc2ccc(F)cc12 [Compound 44]
- RLM Cli [6]: 0.6 mL min^–1 g^–1
- HLM Cli [7]: 2 mL min^–1 g^–1
- MLM Cli [5]: 2.0 mL min^–1 g^–1

SMILES: O=C(NCCN1CCCC1)c1cc(-c2ccc(CN3CCS(=O)(=O)CC3)cc2)nc2ccc(F)cc12 [Compound 43]
- RLM Cli [6]: 0.8 mL min^–1 g^–1
- inhibition in vivo at 1 mg/kg (P. berghei ANKA strain): > 99%
- MLM Cli [5]: <0.5 mL min^–1 g^–1

SMILES: O=C(NCCN1CCCC1)c1cc(-c2ccc(CN3CCOCC3)cc2)nc2ccc(F)cc12 [Compound 2]
- Clb [8]: 18 mL min^–1 kg^–1
- R^3 group pKa, experimental [9]: 6.8
- PAMPA Pe [10]: 7.3 ×10⁻⁶ cm/s
- PPB [11]: 63%
- HLM Cli [12]: ≤1.1 mL min^–1 g^–1
- cure (P. berghei ANKA strain; 4 × 3 mg/kg oral): 2/3
- cure (P. berghei ANKA strain; 4 × 10 mg/kg oral): 3/3
- cure (P. berghei ANKA strain; 4 × 30 mg/kg oral, 30 mg/kg): complete cure and 3/3
- ED90 (P. berghei ANKA strain; dosed orally for 4 days): 0.1 to 0.3 mg/kg
- increase in permeability ([3]; relative to the earlier lead): more than 30 fold
- RLM Cli [13]: ≤0.8 mL min^–1 g^–1
- MLM Cli [14]: <0.5 mL min^–1 g^–1
- Clb [15]: 12 ^b mL min^–1 kg^–1
- LLE (ligand-lipophilicity efficiency) (Pf (3D7)): 5.9
- improvement / increase in potency (Pf (3D7); [16]): 70 fold

SMILES: Cc1ccc(-c2cc(C(=O)Nc3cccnc3)c3ccccc3n2)cc1 [Compound 12, N-(Pyridine-3-yl)-2-(p-tolyl)quinoline-4-carboxamide]
- EC50 at 68 h [1]: > 50 µM
- drop in potency (Pf (3D7); [16]): 8 fold
